Reference: patent US20250313569A1, “Pharmaceutical Compounds And Compositions As Modulators Of MAS-Related G-Protein Receptor X2” (Enanta Pharmaceuticals, Inc., priority 2024, published 2025)

Tests used:
human MRGPRX2 = target: T1, human MRGPRX2 (Homo sapiens, UniProt Q96LB1); assay: MRGPRX2 IP-1 Gq HTRF assay in HEK293 cells stably expressing human MRGPRX2, Cortistatin-14 at EC75; format: cell-based; details: 2 hours at 37° C., cellular IP-1
T1 construct: expressed in transfected cells; host or cells: HEK293
T1 sequence (Q96LB1 1-330): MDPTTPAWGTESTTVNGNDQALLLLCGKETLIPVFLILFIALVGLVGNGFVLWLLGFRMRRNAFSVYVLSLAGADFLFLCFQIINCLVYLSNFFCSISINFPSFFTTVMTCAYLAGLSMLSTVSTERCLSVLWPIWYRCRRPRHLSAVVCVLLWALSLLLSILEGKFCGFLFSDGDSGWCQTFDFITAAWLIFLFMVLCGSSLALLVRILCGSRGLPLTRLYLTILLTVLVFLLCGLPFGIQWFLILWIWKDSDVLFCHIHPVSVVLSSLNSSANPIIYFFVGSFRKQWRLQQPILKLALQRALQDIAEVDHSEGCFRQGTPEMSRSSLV
Protocol: HEK293 cells stably expressing human MRGPRX2 were grown in Dulbecco's Modified Eagle Medium (DMEM) supplemented with 10% fetal bovine serum (FBS), 1% Glutamax, and 1 μg/mL of puromycin. Cells were maintained in a 37° C., 5% CO2 humidified incubator.
Cells were plated in a 384-well assay plate at a density of 20,000 cells per well overnight. Compounds were solubilized at 10 mM in DMSO and added as a 10-point curve using an ECHO acoustic liquid handler. On the day of the assay, Cortistatin-14 was diluted in assay buffer (provided by IP-One-Gq-HTRF kit purchased from Cisbio, 62IPAPEJ) and added to the assay plate at a final concentration corresponding to the predetermined EC75. Plates were incubated at 37° C. for 2 hours prior to addition of HTRF detection reagents per the manufacturer's instructions. The plates were read on a Perkin Elmer Envision plate reader. The HTRF ratio and cellular IP-1 levels were calculated. XLfit was used to calculate an EC50 value for each compound using a 4-parameter logistic curve fitting model. EC50 ranges are reported as follows: A<100 nM; B 0.1-1 μM; C>1 μM.

MRGPRX2 LAD2 = target: T2, MRGPRX2 LAD2 (Homo sapiens, UniProt Q96LB1); assay: LAD2 β-hexosaminidase release assay (degranulation), Cortistatin-14 at EC75; format: cell-based; details: LAD2 cells; 1 hour compound incubation, Cortistatin-14 at EC75 for 30 minutes; percent degranulation (β-hexosaminidase)
T2 construct: host or cells: LAD2 human mast cells
T2 sequence (Q96LB1 1-330): T1 sequence (Q96LB1 1-330)
Protocol: LAD2 cells obtained from the NIH were cultured in StemPro34 (Gibco) serum-free media supplemented with GlutaMax, penicillin and streptomycin, and 100 ng/mL SCF (Invitrogen). Cells were maintained in a 37° C., 5% CO2 humidified incubator at a concentration of 2-5E5 cells/mL, with hemidepletion once a week.
One day prior to the assay, cells were starved of SCF at a concentration of 2.3E5 cells/mL. On the day of the assay cells were washed twice in Tyrode's Buffer containing 0.04% BSA (assay buffer) and plated in a 96 well-v-bottom assay plate at 20,000 cells per well in 80 μL of assay buffer. Compounds were solubilized at 10 mM DMSO and added as a 10-fold overconcentrated 8-point curve in assay buffer in a volume of 10 μL using the JANUS liquid handler. Assay plates were incubated for 1 hour at 37° C. Cortistatin-14 was diluted in assay buffer to […] its predetermined EC75 and added to the assay plates in a volume of 10 μL. Assay plates were incubated at 37° C. for 30 minutes. After incubation, cells were pelleted and 50 μL of supernatant from each well was transferred to a 96 well flat bottom plate containing 100 μL of substrate solution (3.5 mg/mL p-Nitrophenyl-N-acetyl-β-D-glucosaminide (Sigma Aldrich) in 40 mM Citrate Buffer (Thermo Fisher)). The remaining cell pellets were lysed with 150 μL of 0.1% Triton-X-100 and mixed thoroughly. 50 μL of lysate was transferred to a 96-well flat bottom plate containing 100 μL of substrate solution. Plates with supernatants and lysates were incubated at 37° C. for 90 minutes prior to addition of 50 μL of 400 mM Glycine buffer (pH 10.7). The plates were read on a Perkin Elmer Envision plate reader at an Abs of 405 nanometers. Percent degranulation was calculated and Xlfit was used to calculate an EC50 value for each compound using a 4-parameter logistic curve fitting model. EC50 ranges are reported as follows: A<100 nM; B 0.1-1 μM; C>1 μM.

| Compound | EC50 (human MRGPRX2) | EC50 (MRGPRX2 LAD2) |
| --- | --- | --- |
| CS(=O)(=O)Nc1cccc(C(=O)N[C@H]2C[C@@H](Nc3cc(C(F)(F)F)nc4ccc(Cl)cc34)CN(C(=O)C(F)(F)F)C2)c1 [Example 8] | 100 to 1000 nM | < 100 nM |
| CS(=O)(=O)Nc1cccc(C(=O)N[C@H]2C[C@@H](Nc3cc(C(F)(F)F)nc4ccc(Cl)cc34)CN(S(C)(=O)=O)C2)c1 [Example 3] | 100 to 1000 nM | < 100 nM |
| COC(=O)N1C[C@@H](NC(=O)c2cccc(NS(C)(=O)=O)c2)C[C@@H](Nc2cc(C(F)(F)F)nc3ccc(Cl)cc23)C1 [Example 5] | < 100 nM | < 100 nM |
| CS(=O)(=O)Nc1cccc(C(=O)N[C@H]2C[C@@H](Nc3cc(C(F)(F)F)nc4ccc(Cl)cc34)CN(S(=O)(=O)c3ccccc3)C2)c1 [Example 4] | 100 to 1000 nM | < 100 nM |
| CS(=O)(=O)Nc1cccc(C(=O)N[C@H]2C[C@@H](Nc3cc(C(F)(F)F)nc4ccc(Cl)cc34)CN(C(=O)c3ccccc3)C2)c1 [Example 1] | 100 to 1000 nM | < 100 nM |
| CN(C)C(=O)N1C[C@@H](NC(=O)c2cccc(NS(C)(=O)=O)c2)C[C@@H](Nc2cc(C(F)(F)F)nc3ccc(Cl)cc23)C1 [Example 10] | 100 to 1000 nM | < 100 nM |
| CC(=O)N1C[C@@H](NC(=O)c2cccc(S(C)(=O)=O)c2)C[C@@H](Nc2cc(C(F)(F)F)nc3ccc(Cl)cc23)C1 [Example 28] | < 100 nM |  |
| CS(=O)(=O)Nc1cccc(C(=O)N[C@H]2CC(Nc3cc(C(F)(F)F)nc4ccc(Cl)cc34)CN(C(=O)Nc3ccccc3)C2)c1 (some centres unmarked) [Example 20] | 100 to 1000 nM |  |
| COc1ccc(C(=O)N[C@H]2C[C@@H](Nc3cc(C(F)(F)F)nc4ccc(Cl)cc34)CN(C(C)=O)C2)cc1 [Example 25] | < 100 nM | < 100 nM |
| CC(=O)N1C[C@@H](NC(=O)c2ccc(F)c(F)c2)C[C@@H](Nc2cc(C(F)(F)F)nc3ccc(Cl)cc23)C1 [Example 26] | 100 to 1000 nM |  |
| CC(=O)N1C[C@@H](NC(=O)c2cccc(C#N)c2)C[C@@H](Nc2cc(C(F)(F)F)nc3ccc(Cl)cc23)C1 [Example 24] | < 100 nM | < 100 nM |
| CNC(=O)N1C[C@@H](NC(=O)c2cccc(NS(C)(=O)=O)c2)C[C@@H](Nc2cc(C(F)(F)F)nc3ccc(Cl)cc23)C1 [Example 9] | 100 to 1000 nM | 100 to 1000 nM |
| CS(=O)(=O)Nc1cccc(C(=O)N[C@H]2CC(N(C(=O)C3CC3)c3cc(C(F)(F)F)nc4ccc(Cl)cc34)CN(C(=O)C3CC3)C2)c1 (some centres unmarked) [Example 18] | 100 to 1000 nM |  |
| CNCC(=O)N1C[C@@H](NC(=O)c2cccc(NS(C)(=O)=O)c2)C[C@@H](Nc2cc(C(F)(F)F)nc3ccc(Cl)cc23)C1 [Example 12] | 100 to 1000 nM |  |
| COCC(=O)N1C[C@@H](NC(=O)c2cccc(NS(C)(=O)=O)c2)C[C@@H](Nc2cc(C(F)(F)F)nc3ccc(Cl)cc23)C1 [Example 14] | < 100 nM |  |
| CC(=O)N1C[C@@H](NC(=O)c2ccc(F)cc2)C[C@@H](Nc2cc(C(F)(F)F)nc3ccc(Cl)cc23)C1 [Example 23] | < 100 nM |  |
| CC(C)(C)OC(=O)N1C[C@@H](NC(=O)c2cccc(NS(C)(=O)=O)c2)C[C@@H](Nc2cc(C(F)(F)F)nc3ccc(Cl)cc23)C1 [Example 6] | 100 to 1000 nM |  |
| CS(=O)(=O)Nc1cccc(C(=O)N[C@H]2CC(Nc3cc(C(F)(F)F)nc4ccc(Cl)cc34)CN(C(=O)C3CCC3)C2)c1 (some centres unmarked) [Example 17] | 100 to 1000 nM |  |
| CC(=O)N1C[C@@H](NC(=O)c2ccc(F)cc2F)C[C@@H](Nc2cc(C(F)(F)F)nc3ccc(Cl)cc23)C1 [Example 27] | 100 to 1000 nM |  |

Now from value to compound:

| EC50 (human MRGPRX2) | EC50 (MRGPRX2 LAD2) | Compound |
| --- | --- | --- |
| < 100 nM | < 100 nM | CC(=O)N1C[C@@H](NC(=O)c2cnn(CC(F)(F)F)c2)C[C@@H](Nc2cc(C(F)(F)F)nc3ccc(Cl)cc23)C1 [Example 29] |
| < 100 nM | < 100 nM | CS(=O)(=O)Nc1cccc(C(=O)N[C@@H]2COC[C@H](Nc3cc(C(F)(F)F)nc4ccc(Cl)cc34)C2)c1 (racemic) [Example 44, N-(cis-5-((6-chloro-2-(trifluoromethyl)quinolin-4-yl)amino)tetrahydro-2H-pyran-3-yl)-3-(methylsulfonamido)benzamide] |
| < 100 nM | < 100 nM | CC(=O)N1C[C@@H](NC(=O)c2cnn(C)c2)C[C@@H](Nc2cc(C(F)(F)F)nc3ccc(Cl)cc23)C1 [Example 30] |
| < 100 nM |  | CC(=O)N1C[C@@H](NC(=O)c2cnn(C3CCCCC3)c2)C[C@@H](Nc2cc(C(F)(F)F)nc3ccc(Cl)cc23)C1 [Example 68] |
| < 100 nM |  | CC(=O)N1C[C@@H](NC(=O)c2cnn(C(F)F)c2)C[C@@H](Nc2cc(C(F)(F)F)nc3ccc(Cl)cc23)C1 [Example 40] |
| > 1000 nM |  | CN1C[C@@H](NC(=O)c2cccc(NS(C)(=O)=O)c2)C[C@@H](Nc2cc(C(F)(F)F)nc3ccccc23)C1 [Example 51] |
| 100 to 1000 nM |  | CC(=O)N1C[C@@H](NC(=O)c2ccc(C(F)(F)F)cc2)C[C@@H](Nc2cc(C(F)(F)F)nc3ccc(Cl)cc23)C1 [Example 67] |
| < 100 nM |  | CC(=O)N1C[C@@H](NC(=O)c2cn(C(F)F)nc2C(F)F)C[C@@H](Nc2cc(C(F)(F)F)nc3ccc(Cl)cc23)C1 [Example 59] |
| 100 to 1000 nM |  | CC(=O)N1C[C@@H](NC(=O)c2ccc(C)nc2)C[C@@H](Nc2cc(C(F)(F)F)nc3ccc(Cl)cc23)C1 [Example 62] |
| 100 to 1000 nM |  | CC(=O)N1C[C@@H](NC(=O)c2ccc(OC(F)(F)F)cc2)C[C@@H](Nc2cc(C(F)(F)F)nc3ccc(Cl)cc23)C1 [Example 66] |
| < 100 nM |  | CC(=O)N1C[C@@H](NC(=O)c2cccc(F)c2)C[C@@H](Nc2cc(C(F)(F)F)nc3ccc(Cl)cc23)C1 [Example 36] |
| 100 to 1000 nM |  | CC(=O)N1C[C@H](Nc2cc(C(F)(F)F)nc3ccc(Cl)cc23)C[C@H](n2cc(-c3cccc(NS(C)(=O)=O)c3)nn2)C1 [Example 55] |
| < 100 nM |  | CCn1cc2cc(C(=O)N[C@H]3C[C@@H](Nc4cc(C(F)(F)F)nc5ccc(Cl)cc45)CN(C(C)=O)C3)ccc2n1 [Example 57] |
| < 100 nM |  | CCn1cc(C(=O)N[C@H]2C[C@@H](Nc3cc(C(F)(F)F)nc4ccc(Cl)cc34)CN(C(C)=O)C2)cn1 [Example 31] |
| < 100 nM |  | COc1cc(C(=O)N[C@H]2C[C@@H](Nc3cc(C(F)(F)F)nc4ccc(Cl)cc34)CN(C(C)=O)C2)cc2cn(C(F)F)nc12 [Example 56] |
| < 100 nM | < 100 nM | CC(=O)N1C[C@@H](NC(=O)c2cccc(C(F)F)c2)C[C@@H](Nc2cc(C(F)(F)F)nc3ccc(Cl)cc23)C1 [Example 42] |
| < 100 nM |  | CC(=O)N1C[C@@H](NC(=O)c2ccc3[nH]ncc3c2)C[C@@H](Nc2cc(C(F)(F)F)nc3ccc(Cl)cc23)C1 [Example 58] |
| > 1000 nM |  | CC(=O)N1C[C@H](Nc2cc(C(F)(F)F)nc3ccc(Cl)cc23)C[C@H](N(C)C(=O)c2cnn(C)c2)C1 [Example 47] |
| 100 to 1000 nM |  | CC(=O)N1C[C@@H](NC(=O)c2cnn(C)c2C)C[C@@H](Nc2cc(C(F)(F)F)nc3ccc(Cl)cc23)C1 [Example 39] |
| 100 to 1000 nM |  | CC(=O)N1C[C@@H](NC(=O)c2cnn(C(C)C)c2)C[C@@H](Nc2cc(C(F)(F)F)nc3ccc(Cl)cc23)C1 [Example 38] |
| 100 to 1000 nM |  | CS(=O)(=O)Nc1cccc(-c2cn([C@@H]3CNC[C@H](Nc4cc(C(F)(F)F)nc5ccc(Cl)cc45)C3)nn2)c1 [Example 54, N-(3-(1-((3S,5R)-5-((6-Chloro-2-(trifluoromethyl)quinolin-4-yl)amino)piperidin-3-yl)-1H-1,2,3-triazol-4-yl)phenyl) methanesulfonamide] |
